Test results taken from patent publication US12577241B2, “Polycyclic pyridopyrazine derivative” (Shionogi & Co., Ltd., priority 2019, dated 2026).

What follows are compounds tested on HIV (assay: Test Example 1: Anti-HIV activity (MT-4 cells, CellTiter-Glo)). Conditions: 4 days culture, CellTiter-Glo luminescence, read-out: EC50 (50% HIV inhibitory concentration).
Type: cell-based
Description: Test Example 1: Anti-HIV Activity
Serial dilutions of a test sample were prepared in a 384-well microplate by a dispensing machine. 6.25×10^4 cells/mL of a MT-4 cell suspension was dispensed at 20 μL/well to the plate containing the test sample. Then, an HIV virus solution was dispensed at 20 μL/well. The plate was mixed with a plate mixer and cultured for 4 days in a CO2 incubator. On day 4 of culture, CellTiter-Glo or CellTiter-Glo 2.0 was dispensed at 20 μL/well. The plate was reacted while being stirred with the plate mixer at room temperature for about 15 minutes. The amount of luminescence of the plate after the reaction was measured with a microplate reader. A 50% HIV inhibitory concentration (EC50) was determined from a concentration-dependent curve using the following 4 parameter logistic curve fitting model. y=A+((B−A)/(1+((C/x)^D))) • A=minimum rate of inhibition (negative control, 0%) • B=maximum rate of inhibition (positive control, 100%) • C=compound concentration at an inflection point • D=slope coefficient • x=compound concentration • y=rate of inhibition (%) (Results)

Compound | EC50
CCN1C(=O)c2c(O)c(=O)c(C(=O)NCc3cccc(Cl)c3F)cn2[C@H]2[C@H](COC)CC[C@H]21 [Compound I-013] | 2.5 nM
CCN1C(=O)c2c(O)c(=O)c(C(=O)NCc3cccc(Cl)c3F)cn2[C@H]2CC(F)(F)C[C@H]21 [Compound I-001] | 1.4 nM

Same assay, conditions: Human immunodeficiency virus 1, MT4, 96 h, 4 days culture, CellTiter-Glo luminescence, read-out: EC50 (50% HIV inhibitory concentration)

Compound | EC50
CN1C(=O)c2c(O)c(=O)c(C(=O)NCc3cccc(Cl)c3F)cn2[C@H]2CCCC[C@H]21 [Compound I-028] | 1.2 nM
CCN1C(=O)c2c(O)c(=O)c(C(=O)NCc3cccc(Cl)c3F)cn2[C@H]2CCC[C@H]21 [Compound I-029] | 2.2 nM
CCN1C(=O)c2c(O)c(=O)c(C(=O)NCc3c(F)cc(F)cc3F)cn2[C@H]2CCC(F)(F)C[C@H]21 [Compound I-012] | 0.93 nM
CN1C(=O)c2c(O)c(=O)c(-c3nnc(Cc4ccc(F)cc4F)s3)cn2[C@H]2CCCC[C@H]21 [Compound I-018] | 2.3 nM
CCN1C(=O)c2c(O)c(=O)c(C(=O)NCc3cccc(Cl)c3F)cn2[C@H]2C[C@@H](COC)C[C@H]21 [Compound I-015] | 2.5 nM
CCN1C(=O)c2c(O)c(=O)c(C(=O)NCc3c(F)cc(F)cc3F)cn2[C@@H]2[C@H]1CCCC2(F)F [Compound I-006] | 0.63 nM
CN1C(=O)c2c(O)c(=O)c(C(=O)NCc3nccc(Cl)c3F)cn2[C@H]2CCCC[C@H]21 [Compound I-004] | 3.3 nM
CCN1C(=O)c2c(O)c(=O)c(C(=O)NCc3cccc(Cl)c3F)cn2[C@H]2CCC(F)(F)C[C@H]21 [Compound I-011] | 9 nM
CCN1C(=O)c2c(O)c(=O)c(C(=O)NCc3c(F)cc(F)cc3F)cn2[C@H]2[C@@H]3CC[C@@H](C3)[C@H]21 [Compound I-010] | 5.2 nM
CCN1C(=O)c2c(O)c(=O)c(C(=O)NCc3ccc(F)cc3F)cn2[C@H]2CCCC[C@H]21 [Compound I-025] | 2.1 nM
CCN1C(=O)c2c(O)c(=O)c(-c3nnc(Cc4ccc(F)cc4F)s3)cn2[C@H]2CCCC(F)(F)[C@H]21 [Compound I-021] | 3.6 nM
CCN1C(=O)c2c(O)c(=O)c(C(=O)NCc3c(F)cc(F)cc3F)cn2[C@H]2CC(F)(F)C[C@H]21 [Compound I-002] | 1.5 nM
CCN1C(=O)c2c(O)c(=O)c(C(=O)NCc3cccc(Cl)c3F)cn2[C@H]2CCCC(F)(F)[C@H]21 [Compound I-007] | 0.7 nM
CCN1C(=O)c2c(O)c(=O)c(C(=O)NCc3cccc(Cl)c3F)cn2[C@H]2CCCC[C@H]21 [Compound I-024] | 1.9 nM
CN1C(=O)c2c(O)c(=O)c(C(=O)NCc3c(F)cc(F)cc3F)cn2[C@H]2CCCC[C@H]21 [Compound I-027] | 0.7 nM
CCN1C(=O)c2c(O)c(=O)c(C(=O)NCc3cccc(Cl)c3F)cn2[C@H]2C[C@@H](COC)CC[C@H]21 [Compound I-014] | 3.8 nM
CCN1C(=O)c2c(O)c(=O)c(-c3nnc(Cc4ccc(F)cc4F)s3)cn2[C@H]2[C@@H]3CC[C@@H](C3)[C@H]21 [Compound I-019] | 8.2 nM
CCN1C(=O)c2c(O)c(=O)c(C(=O)NCc3c(F)cc(F)cc3F)cn2[C@H]2CCCC[C@H]21 [Compound I-026] | 1.3 nM
CCN1C(=O)c2c(O)c(=O)c(-c3nnc(Cc4ccc(F)cc4F)s3)cn2[C@H]2CCC(F)(F)C[C@H]21 [Compound I-023] | 4.6 nM
CCN1C(=O)c2c(O)c(=O)c(C(=O)NCc3c(F)cc(F)cc3F)cn2[C@H]2CCCC(F)(F)[C@H]21 [Compound I-008] | 0.52 nM
CCN1C(=O)c2c(O)c(=O)c(C(=O)NCc3c(F)cc(F)cc3F)cn2[C@H]2CCC[C@H]21 [Compound I-030] | 2.6 nM

What follows are compounds tested on HIV (assay: Test Example 1B: Anti-HIV activity (MT-4 cells, MTT)). Conditions: Human immunodeficiency virus 1, MT4, 96 h, 4 days culture, MTT absorbance, read-out: EC50 (50% HIV inhibitory concentration).
Type: cell-based
Description: Test Example 1B: Anti-HIV Activity
Serial dilutions of a test sample were prepared in a 96-well microplate (50 μL/well). 2.5×10^5 cells/mL of a MT-4 cell suspension was dispensed at 100 μL/well to the plate containing the test sample. Then, an HIV virus solution was dispensed at 50 μL/well. The plate was mixed with a plate mixer and cultured for 4 days in a CO2 incubator. An MTT (3-(4,5-dimethylthiazol-2-yl)-2,5-diphenyltetrazolium bromide) solution was dispensed at 30 μL/well. The plate was reacted for 1 hour in a CO2 incubator. 150 μL of the supernatant was removed from each well so as not to take up the cells. 150 μL of a cell lysis solution was added to each well and well mixed with a plate mixer until the cells were completely lysed. The absorbance of the mixed plate was measured at two wavelengths of 560 nm and 690 nm using a microplate reader. A 50% HIV inhibitory concentration (EC50) was determined from a concentration-dependent curve using the following 4 parameter logistic curve fitting model. y=A+((B−A)/(1+(C/x)^D)) • A=minimum rate of inhibition (negative control, 0%) • B=maximum rate of inhibition (positive control, 100%) • C=compound concentration at an inflection point • D=slope coefficient • x=compound concentration • y=rate of inhibition (%) (Results)

Compound | EC50
CCN1C(=O)c2c(O)c(=O)c(C(=O)NCc3ccc(F)cc3F)cn2[C@H]2[C@@H]1CCC2(F)F [Compound I-037] | 3.6 nM
CCN1C(=O)c2c(O)c(=O)c(C(=O)NCc3nccc(Cl)c3F)cn2[C@@H]2[C@H]1CCC2(F)F [Compound I-040] | 13 nM
CCN1C(=O)c2c(O)c(=O)c(C(=O)NCc3cccc(Cl)c3F)cn2[C@H]2Cc3ccccc3[C@H]21 [Compound I-033] | 9.7 nM
CCN1C(=O)c2c(O)c(=O)c(C(=O)NCc3ccc(F)cc3F)cn2[C@@H]2[C@H]1CCC2(F)F [Compound I-038] | 4.3 nM
CCN1C(=O)c2c(O)c(=O)c(C(=O)NCc3nccc(Cl)c3F)cn2[C@H]2[C@@H]1CCC2(F)F [Compound I-039] | 9.8 nM
CCN1C(=O)c2c(O)c(=O)c(C(=O)NCc3nccc(Cl)c3F)cn2[C@@H]2CC(F)(F)CC[C@@H]21 [Compound I-041] | 12 nM
CCN1C(=O)c2c(O)c(=O)c(C(=O)NCc3ccc(F)cc3F)cn2[C@H]2Cc3ccccc3[C@H]21 [Compound I-035] | 5.4 nM
CCN1C(=O)c2c(O)c(=O)c(C(=O)NCc3nccc(Cl)c3F)cn2[C@H]2Cc3ccccc3[C@H]21 [Compound I-034] | 12 nM
CCN1C(=O)c2c(O)c(=O)c(C(=O)NCc3cccc(Cl)c3F)cn2[C@H]2[C@@H]1[C@@H]1CC[C@H]2O1 [Compound I-043] | 6.2 nM
CCN1C(=O)c2c(O)c(=O)c(C(=O)NCc3cccc(Cl)c3F)cn2[C@@H]2[C@H]1[C@H]1CC[C@@H]2O1 [Compound I-044] | 7 nM
CCN1C(=O)c2c(O)c(=O)c(C(=O)NCc3nccc(Cl)c3F)cn2[C@H]2CC(F)(F)CC[C@H]21 [Compound I-042] | 7.9 nM
CCN1C(=O)c2c(O)c(=O)c(C(=O)NCc3cccc(Cl)c3F)cn2[C@H]2CCC3(CC3)C[C@H]21 [Compound I-036] | 7.1 nM

These compounds were tested on HIV mutant strains (E92Q/E138T/G140S/Q148H) (assay: Test Example 2: Resistance evaluation test (HeLa-CD4 cells, wild and mutant strain)). Conditions: 3 days.
Type: cell-based
Description: Test Example 2: Resistance Evaluation Test
Serial dilutions of a test sample were prepared in a 96-well microplate (50 μL/well). 2.5×10^5 cells/mL of a HeLa-CD4 cell suspension was dispensed at 100 μL/well to the plate containing the test sample. Then, an HIV virus solution (wild strain and mutant strain) was dispensed at 50 μL/well. The plate was mixed with a plate mixer and cultured for 3 days in a CO2 incubator. The culture supernatant in each well was removed by suction. A cell lysis buffer was dispensed at 100 μL/well, and the plate was frozen in a freezer (−80° C.). The plate frozen in a freezer was thawed at room temperature, then mixed with a plate mixer, and centrifuged at 1,200 rpm for 5 minutes. Beta-Glo Reagent was dispensed at 20 μL/well to a 384-well microplate, 2 μL of the supernatant of each well (diluted as necessary) of the plate after centrifugation was added, and then the mixture was reacted at room temperature for about 30 minutes. The amount of luminescence of the plate after the reaction was measured with a microplate reader. A 50% HIV inhibitory concentration (EC50) was determined from a concentration-dependent curve using the following 4 parameter logistic curve fitting model. y=A+((B−A)/(1+((C/x)^D))) • A=minimum rate of inhibition (negative control, 0%) • B=maximum rate of inhibition (positive control, 100%) • C=compound concentration at an inflection point • D=slope coefficient • x=compound concentration • y=rate of inhibition (%)
The degree of resistance (fold change (FC)) of each mutant strain was calculated according to the following expression. • FC=EC50 of the mutant strain/EC50 of the wild strain (Results)

Compound | FC (fold change, degree of resistance) = EC50 of the mutant strain/EC50 of the wild strain
CCN1C(=O)c2c(O)c(=O)c(C(=O)NCc3cccc(Cl)c3F)cn2[C@H]2C[C@@H](COC)CC[C@H]21 [Compound I-014] | 4.1
